# Experimental data from patent publication US20250134870A1, “PATHWAY MODULATOR, PHARMACEUTICAL COMPOSITION HAVING SAME, USE THEREOF, AND THERAPEUTIC METHOD USING SAME” (Jiangsu Yahong Meditech Co., Ltd., priority 2021, published 2025).
# Key:
# [1] = system: NMO-IgG-induced neuromyelitis optica; assay: NMO-IgG-induced neuromyelitis optica (NMO) in mice: AQP4, GFAP, IBA1, CD45 (Example 7); assay type: in vivo, C57 mice; settings: 50 and 100 mg/kg PO QD × 10 days
# Procedure: 1) C57 female mice (6 to 8 weeks old) were anesthetized with intraperitoneal injection of 5% chloral hydrate (70 μL/10 g).
# 2) Fur of the top of head was removed to expose the scalp. The mouse head was fixed on the brain stereotaxic apparatus, keeping the top of the skull horizontal. The scalp was disinfected with iodophor.
# 3) The scalp was cut lengthwise for about 0.5 cm to search for the anterior and posterior fontanelle areas. The stereotaxic caliper was rotated to move the needle tip of trace syringe to the anterior and posterior fontanelle areas, and the mouse skull was kept horizontal by observing the distance from Bregma and Lambda to the needle tip. After horizontal adjustment, the needle tip was moved to Bregma and then moved 2 mm to the right to reach the position.
# 4) The position on the surface of the mouse skull was marked and a hole was drilled at this point with a skull drill. During drilling, blood vessels should be avoided and drilling should be continued carefully to avoid damaging the duramater and brain tissue.
# 5) The trace syringe was vertically introduced into the mouse brain tissue using the stereotaxic apparatus with a vertical needle depth of 3 mm. The syringe was kept in place and maintained for 5 min.
# 6) The syringe pump was turned on, the Infuse Only mode was selected, and the solution (2 μL NMO-IgG+3 μL human complement+5 μL PBS/drug, mixed and pipetted well in advance, and placed on ice) was injected at a speed of […].
# 7) After the injection was completed, the syringe was maintained for 10 min. The syringe was slowly pulled upward by rotating the caliper, and maintained for 5 min after moving 1 mm upward, until the syringe was completely pulled out. The skin was sutured and disinfected again with iodophor.
# Dosing started 3 days before model establishment and lasted until 7 days after model establishment, for 10 consecutive days.
# On Day 8 after model establishment (i.e., the day after the last dose), the experimental mice were euthanized and brain tissue was collected for frozen sections. Then, the immune response area of astrocyte markers in each group of mice was determined and evaluated (see the reference Ye Gong et al., Journal of Neuroinflammation, 17 (1). doi:10.1186/s12974-020-01874-6 for experimental methods).
# [2] = system: IRBP R16-induced experimental autoimmune uveoretinitis (EAU); assay: Bovine IRBP R16-induced experimental autoimmune uveoretinitis (EAU): clinical score, AUC, incidence (Example 6); assay type: in vivo, Lewis rats
# Procedure: On Day-1 (i.e., the day before immunization, hereinafter), 60 rats were randomly divided into 6 groups (n=10) based on body weight (see Table 18). On Day 0, rats in Groups 2 to 6 were anesthetized with isoflurane, followed by subcutaneous injection of a total of […] of emulsion resulting from IRBP R16 and CFA emulsified at a 1:1 v/v ratio, on both thighs (50 μL at each site) and tail head (100 μL), respectively.
# From Day 0 after immunization, the eyes of rats were checked daily with a flashlight by gently opening the upper and lower eyelids of the test rats, and the incidence of disease was recorded. Clinical symptoms were scored in a blind manner from the onset of disease to the end of the study according to the criteria listed in Table 17.
# Dosing started from Day 0 accurately according to the animal body weight for a total of 16 days.
# The results were expressed as “mean±standard error”. Graphpad Prism or SPSS was used for statistical analysis, and p<0.05 was considered statistically significant.
# peripheral blood cells = assay: Bleomycin-induced skin fibrosis in mice: blood routine test of peripheral blood (Example 5); assay type: in vivo, male C57BL/6 mice
# Procedure: Animals were weighed at the experimental endpoints and the body weight was recorded to calculate the volume of administration. 6 h after dosing, firstly, whole blood was collected from the orbital venous plexus of mice and subjected to blood routine test using an automated Hematology analyzer (Sysmex XS-800i). The specific test steps were as follows: the blood sample in the test tube was thoroughly mixed before testing; the sample was placed under the sampling needle, then injected by pressing the start button, and removed after indicator light of the instrument was off; the instrument started to automatically test the sample and output the results.
# [3] = 100 mg/kg PO QD, 28 days (Test group 3#) vs solvent group
smiles,measurement,setting,value
NCc1c[nH]c(=S)n1[C@H]1CCc2c(F)cc(F)cc2C1 [Nepicastat],effect on NMO-IgG-induced neuromyelitis optica in mice,[1],certain inhibitory effect
same,immune parameter CD45,[1],no significant effect
same,immune parameter IBA1,[1],no significant effect
same,lesion ratio of AQP4,[1]; vs control group,significantly reduce the lesion ratio
same,lesion ratio of GFAP,[1]; vs control group,significantly reduce the lesion ratio
same,Area under the curve (AUC) of clinical score,[2]; 25 mg/kg PO QD × 16 days,45.30
same,Area under the curve (AUC) of clinical score,[2]; 50 mg/kg PO QD × 16 days,39.65
same,Area under the curve (AUC) of clinical score,[2]; 100 mg/kg PO QD × 16 days,37.65
same,"symptoms of uveitis, EAU clinical score and clinical score AUC","[2]; 25, 50 and 100 mg/kg PO QD × 16 days","moderately ameliorate the symptoms of uveitis and reduced the EAU clinical score and clinical score AUC, but this effect was not statistically significant"
same,Incidence rate (%),"[2]; Day 0, 25 mg/kg PO QD",0%
same,Incidence rate (%),"[2]; Day 0, 50 mg/kg PO QD",0%
same,Incidence rate (%),"[2]; Day 0, 100 mg/kg PO QD",0%
same,Incidence rate (%),"[2]; Day 1, 25 mg/kg PO QD",0%
same,Incidence rate (%),"[2]; Day 1, 50 mg/kg PO QD",0%
same,Incidence rate (%),"[2]; Day 1, 100 mg/kg PO QD",0%
same,Incidence rate (%),"[2]; Day 2, 25 mg/kg PO QD",0%
same,Incidence rate (%),"[2]; Day 2, 50 mg/kg PO QD",0%
same,Incidence rate (%),"[2]; Day 2, 100 mg/kg PO QD",0%
same,Incidence rate (%),"[2]; Day 3, 25 mg/kg PO QD",0%
same,Incidence rate (%),"[2]; Day 3, 50 mg/kg PO QD",0%
same,Incidence rate (%),"[2]; Day 3, 100 mg/kg PO QD",0%
same,Incidence rate (%),"[2]; Day 4, 25 mg/kg PO QD",0%
same,Incidence rate (%),"[2]; Day 4, 50 mg/kg PO QD",0%
same,Incidence rate (%),"[2]; Day 4, 100 mg/kg PO QD",0%
same,Incidence rate (%),"[2]; Day 5, 25 mg/kg PO QD",70%
same,Incidence rate (%),"[2]; Day 5, 50 mg/kg PO QD",70%
same,Incidence rate (%),"[2]; Day 5, 100 mg/kg PO QD",80%
same,Incidence rate (%),"[2]; Day 6, 25 mg/kg PO QD",100%
same,Incidence rate (%),"[2]; Day 6, 50 mg/kg PO QD",100%
same,Incidence rate (%),"[2]; Day 6, 100 mg/kg PO QD",80%
same,Incidence rate (%),"[2]; Day 7, 25 mg/kg PO QD",70%
same,Incidence rate (%),"[2]; Day 7, 50 mg/kg PO QD",100%
same,Incidence rate (%),"[2]; Day 7, 100 mg/kg PO QD",50%
same,Incidence rate (%),"[2]; Day 8, 25 mg/kg PO QD",100%
same,Incidence rate (%),"[2]; Day 8, 50 mg/kg PO QD",100%
same,Incidence rate (%),"[2]; Day 8, 100 mg/kg PO QD",100%
same,Incidence rate (%),"[2]; Day 9, 25 mg/kg PO QD",100%
same,Incidence rate (%),"[2]; Day 9, 50 mg/kg PO QD",100%
same,Incidence rate (%),"[2]; Day 9, 100 mg/kg PO QD",100%
same,Incidence rate (%),"[2]; Day 10, 25 mg/kg PO QD",100%
same,Incidence rate (%),"[2]; Day 10, 50 mg/kg PO QD",100%
same,Incidence rate (%),"[2]; Day 10, 100 mg/kg PO QD",100%
same,Incidence rate (%),"[2]; Day 11, 25 mg/kg PO QD",100%
same,Incidence rate (%),"[2]; Day 11, 50 mg/kg PO QD",100%
same,Incidence rate (%),"[2]; Day 11, 100 mg/kg PO QD",100%
same,Incidence rate (%),"[2]; Day 12, 25 mg/kg PO QD",100%
same,Incidence rate (%),"[2]; Day 12, 50 mg/kg PO QD",100%
same,Incidence rate (%),"[2]; Day 12, 100 mg/kg PO QD",100%
same,Incidence rate (%),"[2]; Day 13, 25 mg/kg PO QD",100%
same,Incidence rate (%),"[2]; Day 13, 50 mg/kg PO QD",100%
same,Incidence rate (%),"[2]; Day 13, 100 mg/kg PO QD",100%
same,Incidence rate (%),"[2]; Day 14, 25 mg/kg PO QD",100%
same,Incidence rate (%),"[2]; Day 14, 50 mg/kg PO QD",100%
same,Incidence rate (%),"[2]; Day 14, 100 mg/kg PO QD",100%
same,Incidence rate (%),"[2]; Day 15, 25 mg/kg PO QD",100%
same,Incidence rate (%),"[2]; Day 15, 50 mg/kg PO QD",100%
same,Incidence rate (%),"[2]; Day 15, 100 mg/kg PO QD",100%
same,Incidence rate (%),"[2]; Day 16, 25 mg/kg PO QD",100%
same,Incidence rate (%),"[2]; Day 16, 50 mg/kg PO QD",100%
same,Incidence rate (%),"[2]; Day 16, 100 mg/kg PO QD",100%
same,Incidence rate (%),"[2]; Day −1, 25 mg/kg PO QD",0%
same,Incidence rate (%),"[2]; Day −1, 50 mg/kg PO QD",0%
same,Incidence rate (%),"[2]; Day −1, 100 mg/kg PO QD",0%
same,inhibition at 25 mg/kg,"[2]; Rattus norvegicus, 384 h, 25 mg/kg PO QD × 16 days, vs model control, read-out: Inhibition rate of clinical score AUC",8.67%
same,inhibition at 50 mg/kg,"[2]; Rattus norvegicus, 384 h, 50 mg/kg PO QD × 16 days, vs model control, read-out: Inhibition rate of clinical score AUC",20.1%
same,inhibition at 100 mg/kg,"[2]; Rattus norvegicus, 384 h, 100 mg/kg PO QD × 16 days, vs model control, read-out: Inhibition rate of clinical score AUC",24.1%
same,lymphocytes in peripheral blood,peripheral blood cells; [3],significant differences in reducing
same,monocytes in peripheral blood,peripheral blood cells; [3],significant differences in reducing
same,neutrophils in peripheral blood,peripheral blood cells; [3],significant differences in reducing
same,number of increased inflammatory cells in peripheral blood after bleomycin stimulation,"peripheral blood cells; 50 and 100 mg/kg PO QD, 28 days (Test groups 2#, 3#)",reduce the number of increased inflammatory cells in peripheral blood
